Results reported in patent US9701664B2, “Fused 1,4-dihydrodioxin derivatives as inhibitors of heat shock transcription factor 1” (Cancer Research Technology Limited, priority 2013, dated 2017).

Tested on: HSP72 in SK-OV-3 cells
Assay: Cell-based ELISA (Cellisa) assay, SK-OV-3 cells: inhibition of 17-AAG-induced HSP72
Settings: SK-OV-3 cells (Examples 169-218)
Procedure: U2OS cells (5-8×10^4 cells/mL) or SK-OV-3 cells (5-8×10^4 cells/mL) were seeded into 96-well plates and incubated at 37° C. for 48 h. Compounds were then added at a range of concentrations and incubated for 1 h before addition of 17-AAG (250 nM). Cells were then incubated for 18 h. The medium was removed washed 2× with PBS and cells were then fixed with fixing solution (4% paraformaldehyde, 0.3% TritonX-100 in PBS) for 30 min at 4° C. The plates were then washed 2× with PBS before blocking with 5% milk for 30 min at 37° C. After washing the plates 4× with 0.1% Tween-20/deionised water, HSP72 antibody (SPA-810, Enzo Life) was added for 1.5 h at 37° C. Following 4× washes, the plates were incubated with europium-labelled anti-mouse antibody (0.6 ug/ml) in Delfia assay buffer (Perkin Elmer) for 1 h at 37° C. After washing the plates, Delfia enhancement solution was added, shaken for 10 min before reading in the Envision plate reader (Perkin-Elmer) with excitation at 340 nm and emission at 615 nm. The plates were washed again before protein determination using the bicinchoninic acid assay (BCA assay, Pierce Biotechnology). The europium counts were normalised for the amount of protein in each well. The 50% inhibitory concentration value of the compound was then calculated.

For CN1CCN(Cc2ccc3cc(C(=O)Nc4cc(NC(=O)c5ccc6c(c5)OCCO6)ccc4Cl)ccc3n2)CC1 [Example 195, N-(2-chloro-5-(2,3-dihydrobenzo[b][1,4]dioxine-6-carboxamido)phenyl)-2-((4-methylpiperazin-1-yl)methyl)quinoline-6-carboxamide], the IC50 (Homo sapiens) was 66 nM.

O=C(Nc1ccc(Cl)c(NC(=O)c2ccc3nc(CN4CCC4)ccc3c2)c1)c1ccc2c(c1)OCCO2 [Example 199, 2-(azetidin-1-ylmethyl)-N-(2-chloro-5-(2,3-dihydrobenzo[b][1,4]dioxine-6-carboxamido)phenyl)quinoline-6-carboxamide] gave an IC50 (Homo sapiens) of 85 nM.

Work on Cc1ccc(NC(=O)c2ccc3c(c2)OCCO3)cc1NC(=O)c1ccc2nc(CN3CCCCC3)ccc2c1 [Example 209, N-(5-(2,3-dihydrobenzo[b][1,4]dioxine-6-carboxamido)-2-methylphenyl)-2-(piperidin-1-ylmethyl)quinoline-6-carboxamide] yielded an IC50 (Homo sapiens) of 208 nM.

In the case of O=C(Nc1ccc(F)c(NC(=O)c2ccc3nc(CN4CCC4)ccc3c2)c1)c1ccc2c(c1)OCCO2 [Example 171, 2-(azetidin-1-ylmethyl)-N-(5-(2,3-dihydrobenzo[b][1,4]dioxine-6-carboxamido)-2-fluorophenyl)quinoline-6-carboxamide], the IC50 (Homo sapiens) is reported as 450 nM.

Work on O=C(Nc1ccc(F)c(NC(=O)c2ccc3nc(CN4CC5(CCC5)C4)ccc3c2)c1)c1ccc2c(c1)OCCO2 [Example 181, 2-(2-azaspiro[3.3]heptan-2-ylmethyl)-N-(5-(2,3-dihydrobenzo[b][1,4]dioxine-6-carboxamido)-2-fluorophenyl)quinoline-6-carboxamide] yielded an IC50 (Homo sapiens) of 149 nM.

Compound COC1CCN(Cc2ccc3cc(C(=O)Nc4cc(NC(=O)c5ccc6c(c5)OCCO6)ccc4C)ccc3n2)C1 (stereo not drawn) [Example 208, N-(5-(2,3-dihydrobenzo[b][1,4]dioxine-6-carboxamido)-2-methylphenyl)-2-((3-methoxypyrrolidin-1-yl)methyl)quinoline-6-carboxamide] has an IC50 (Homo sapiens) of 53 nM.

CC1CCCN1Cc1ccc2cc(C(=O)Nc3cc(NC(=O)c4ccc5c(c4)OCCO5)ccc3F)ccc2n1 (racemic) [Example 190, (rac)-N-(5-(2,3-dihydrobenzo[b][1,4]dioxine-6-carboxamido)-2-fluorophenyl)-2-((2-methylpyrrolidin-1-yl)methyl)quinoline-6-carboxamide] showed an IC50 (Homo sapiens) of 267 nM.

O=C(Nc1ccc(Cl)c(NC(=O)c2ccc3nc(OCCN4CCCC4)ccc3c2)c1)c1ccc2c(c1)OCCO2 [Example 211, N-(2-chloro-5-(2,3-dihydrobenzo[b][1,4]dioxine-6-carboxamido)phenyl)-2-(2-(pyrrolidin-1-yl)ethoxy)quinoline-6-carboxamide] showed an IC50 (Homo sapiens) of 73 nM.

Compound CCN1CCCN(Cc2ccc3cc(C(=O)Nc4cc(NC(=O)c5ccc6c(c5)OCCO6)ccc4F)ccc3n2)CC1 [Example 184, N-(5-(2,3-dihydrobenzo[b][1,4]dioxine-6-carboxamido)-2-fluorophenyl)-2-((4-ethyl-1,4-diazepan-1-yl)methyl)quinoline-6-carboxamide] has an IC50 (Homo sapiens) of 60 nM.

Work on CN1CCN(Cc2ccc3cc(C(=O)Nc4cc(NC(=O)c5ccc6c(c5)OCCO6)ccc4F)ccc3n2)CC1 [Example 173, N-(5-(2,3-dihydrobenzo[b][1,4]dioxine-6-carboxamido)-2-fluorophenyl)-2-((4-methylpiperazin-1-yl)methyl)quinoline-6-carboxamide] yielded an IC50 (Homo sapiens) of 100 nM.

With CCN1CCN(Cc2ccc3cc(C(=O)Nc4cc(NC(=O)c5ccc6c(c5)OCCO6)ccc4Cl)ccc3n2)CC1 [Example 196, N-(2-chloro-5-(2,3-dihydrobenzo[b][1,4]dioxine-6-carboxamido)phenyl)-2-((4-ethylpiperazin-1-yl)methyl)quinoline-6-carboxamide] the IC50 (Homo sapiens) was 48 nM.

In the case of O=C(Nc1ccc(Cl)c(NC(=O)c2ccc3nc(CN4CCCC4)ccc3c2)c1)c1ccc2c(c1)OCCO2 [Example 198, N-(2-chloro-5-(2,3-dihydrobenzo[b][1,4]dioxine-6-carboxamido)phenyl)-2-(pyrrolidin-1-ylmethyl)quinoline-6-carboxamide], the IC50 (Homo sapiens) is reported as 173 nM.

CCN1CCN(Cc2ccc3cc(C(=O)Nc4cc(NC(=O)c5ccc6c(c5)OCCO6)ccc4C)ccc3n2)CC1 [Example 204, N-(5-(2,3-dihydrobenzo[b][1,4]dioxine-6-carboxamido)-2-methylphenyl)-2-((4-ethylpiperazin-1-yl)methyl)quinoline-6-carboxamide] was tested, and the IC50 (Homo sapiens) was 56 nM.

CC(C)N1CCN(Cc2ccc3cc(C(=O)Nc4cc(NC(=O)c5ccc6c(c5)OCCO6)ccc4F)ccc3n2)CC1 [Example 185, N-(5-(2,3-dihydrobenzo[b][1,4]dioxine-6-carboxamido)-2-fluorophenyl)-2-((4-isopropylpiperazin-1-yl)methyl)quinoline-6-carboxamide] was tested, and the IC50 (Homo sapiens) was 137 nM.

With CCN1CCN(Cc2ccc3cc(C(=O)Nc4cc(NC(=O)c5ccc6c(c5)OCCO6)ccc4F)ccc3n2)[C@@H](C)C1 [Example 213, (S)—N-(5-(2,3-dihydrobenzo[b][1,4]dioxine-6-carboxamido)-2-fluorophenyl)-2-((4-ethyl-2-methylpiperazin-1-yl)methyl)quinoline-6-carboxamide] the IC50 (Homo sapiens) was 57 nM.

CCN1C[C@@H]2C[C@H]1CN2Cc1ccc2cc(C(=O)Nc3cc(NC(=O)c4ccc5c(c4)OCCO5)ccc3F)ccc2n1 [Example 180, N-(5-(2,3-dihydrobenzo[b][1,4]dioxine-6-carboxamido)-2-fluorophenyl)-2-(((1S,4S)-5-ethyl-2,5-diazabicyclo[2.2.1]heptan-2-yl)methyl)quinoline-6-carboxamide] was tested, and the IC50 (Homo sapiens) was 208 nM.

C[C@H]1CCCN1Cc1ccc2cc(C(=O)Nc3cc(NC(=O)c4ccc5c(c4)OCCO5)ccc3F)ccc2n1 [Example 175, (S)—N-(5-(2,3-dihydrobenzo[b][1,4]dioxine-6-carboxamido)-2-fluorophenyl)-2-((2-methylpyrrolidin-1-yl)methyl)quinoline-6-carboxamide] was tested, and the IC50 (Homo sapiens) was 647 nM.

“2-((4-(sec-butyl)piperazin-111)methyl)-N-(5-(2,3-dihydrobenzo[b][1,4]dioxine-6-carboxamido)-2-fluorophenyl)quinoline-6-carboxamide [Example 179]” showed an IC50 of 19 nM.

Compound CC1(C)CN(Cc2ccc3cc(C(=O)Nc4cc(NC(=O)c5ccc6c(c5)OCCO6)ccc4Cl)ccc3n2)C1 [Example 201, N-(2-chloro-5-(2,3-dihydrobenzo[b][1,4]dioxine-6-carboxamido)phenyl)-2-((3,3-dimethylazetidin-1-yl)methyl)quinoline-6-carboxamide] has an IC50 (Homo sapiens) of 83 nM.

Work on O=C(Nc1ccc(F)c(NC(=O)c2ccc3nc(CN4CCN(C5CC5)CC4)ccc3c2)c1)c1ccc2c(c1)OCCO2 [Example 178, 2-((4-cyclopropylpiperazin-1-yl)methyl)-N-(5-(2,3-dihydrobenzo[b][1,4]dioxine-6-carboxamido)-2-fluorophenyl)quinoline-6-carboxamide] yielded an IC50 (Homo sapiens) of 44 nM.

In the case of CCN1CCN(Cc2ccc3cc(C(=O)Nc4cc(NC(=O)c5ccc6c(c5)OCCO6)ccc4F)ccc3n2)CC1 [Example 169, N-(5-(2,3-dihydrobenzo[b][1,4]dioxine-6-carboxamido)-2-fluorophenyl)-2-((4-ethylpiperazin-1-yl)methyl)quinoline-6-carboxamide], the IC50 (Homo sapiens) is reported as 56 nM.

In the case of O=C(Nc1ccc(Br)c(NC(=O)c2ccc3nc(CN4CCC4)ccc3c2)c1)c1ccc2c(c1)OCCO2 [Example 216, 2-(azetidin-1-ylmethyl)-N-(2-bromo-5-(2,3-dihydrobenzo[b][1,4]dioxine-6-carboxamido)phenyl)quinoline-6-carboxamide], the IC50 (Homo sapiens) is reported as 55 nM.

For O=C(Nc1ccc(Cl)c(NC(=O)c2ccc3nc(OCCCN4CCCCC4)ccc3c2)c1)c1ccc2c(c1)OCCO2 [Example 189, N-(2-chloro-5-(2,3-dihydrobenzo[b][1,4]dioxine-6-carboxamido)phenyl)-2-(3-(piperidin-1-yl)propoxy)quinoline-6-carboxamide], the IC50 (Homo sapiens) was 27 nM.

For Cc1ccc(NC(=O)c2ccc3c(c2)OCCO3)cc1NC(=O)c1ccc2nc(CN3CC[C@@H](F)C3)ccc2c1 [Example 206, (R)—N-(5-(2,3-dihydrobenzo[b][1,4]dioxine-6-carboxamido)-2-methylphenyl)-2-((3-fluoropyrrolidin-1-yl)methyl)quinoline-6-carboxamide], the IC50 (Homo sapiens) was 76 nM.

O=C(Nc1ccc(F)c(NC(=O)c2ccc3nc(OCCCN4CCCCC4)ccc3c2)c1)c1ccc2c(c1)OCCO2 [Example 186, N-(5-(2,3-dihydrobenzo[b][1,4]dioxine-6-carboxamido)-2-fluorophenyl)-2-(3-(piperidin-1-yl)propoxy)quinoline-6-carboxamide] was tested, and the IC50 (Homo sapiens) was 13 nM.

O=C(Nc1ccc(F)c(NC(=O)c2ccc3nc(CN4CCCC4)ccc3c2)c1)c1ccc2c(c1)OCCO2 [Example 170, N-(5-(2,3-dihydrobenzo[b][1,4]dioxine-6-carboxamido)-2-fluorophenyl)-2-(pyrrolidin-1-ylmethyl)quinoline-6-carboxamide] was tested, and the IC50 (Homo sapiens) was 379 nM.

In the case of Cc1ccc(NC(=O)c2ccc3c(c2)OCCO3)cc1NC(=O)c1ccc2nc(CN3CCC3)ccc2c1 [Example 203, 2-(azetidin-1-ylmethyl)-N-(5-(2,3-dihydrobenzo[b][1,4]dioxine-6-carboxamido)-2-methylphenyl)quinoline-6-carboxamide], the IC50 (Homo sapiens) is reported as 23 nM.
